# Source: patent US7648711B2, “Dimethicone-containing sustained release injection formulation” (priority 2003, dated 2010)
# Read-outs that look alike come from different tables or passages of the source.
# Assay: Solubility of therapeutic drugs in dimethicone
# Type: physicochemical
# Excerpt: Thus, from the view point of bio-compatibility, dimethicone is suitable to be used as medium to prepare formulation for subcutaneous injection. […] Therefore, this will not pose any stability problem when using silicone as medium to prepare suspensions comprising the aforesaid drugs, which is one of the important factors usually affecting the sustained action of a long-lasting formulation. […] When hydrogenated castor oil used within the proper range (0.2% to 0.5%), the resulting liquid suspension is better in terms of stability, fluidibility, injectability and long-lasting releasing effect than the injection formulation prepared using water, vegetable oil or other organic liquid as the suspension medium. Hydrogenated castor oil functions as a suspending agent and enhances the effect of sustained releasing. In addition, when the formulation of the present invention is prepared by the micro powder crystallizing method, the presence of hydrogenated castor oil suppresses the growth of the crystal nucleus of active ingredients, whereby producing micro powder of active ingredients with a particle size of 20 micrometers or smaller. (4) By mixing the active ingredients with hydrogenated castor oil or with the-combination of hydrogenated castor oil and ethylcellulose to produce solid dispersion micro powder with particle size smaller than 300 micrometers, then dispersing the micro powder in silicone oil and grinding with a colloid mill or a ball mill, a long lasting release formulation containing solid dispersion of various particle sizes (from 10 micrometer to 150 micrometers) can be produced. Further, the sustained releasing effect of the formulation may be modified by adjusting the particle size of the solid dispersion and the proportion of hydrogenated castor oil relative to the active ingredients. For instance, sustained release formulations with various durations of effectiveness may be prepared as follows: mixing avermectins with hydrogenated castor oil to produce two solid dispersions with the avermectins to hydrogenated castor oil equal to 1:2 and 2:1, respectively, then mixing the two solid dispersions at a given ratio and dispersing the mixture in silicone oil, and producing the solid dispersion in the system with the particle size varying between 85 micrometers to 120 micrometers by controlling the extent of grinding. The formulation can provide an effective sustained releasing period up to 140 days following a single administration. Furthermore, the injection prepared by the above method has better injectability, stability and biocompatibility than water or vegetable oil based sustained release formulations for solid dispersion micro powder of avermectins/hydrogenated castor oil. Specifically, the formulation using water as medium has three disadvantages. First, it has difficulty to maintain an effective sustained releasing for more than 80 days. Second, it has poor injectability and, without adding more water soluble suspension assisting agents, solid suspension phase may “separate” from the water phase, causing injection failure due to blocking of the syringe needle. Third, it results in tissue lumps around the injection site. Other organic liquid based long-lasting formulations have similar problems.
Compound,Solubility in dimethicone,Solubility in dimethicone (dimethicone)
CO/N=C(\C(=O)N[C@@H]1C(=O)N2C(C(=O)O)=C(CSC(=O)c3ccco3)CS[C@H]12)c1csc(N)n1 [ceftiofur],less than 0.01%,
O=C(NC(=O)c1c(F)cccc1F)Nc1ccc(Cl)cc1 [diflubenzuron],,less than 0.01%
O=[N+]([O-])NC1=NCCN1Cc1ccc(Cl)nc1 [imidacloprid],less than 0.01%,
CC1(C)S[C@@H]2[C@H](NC(=O)Cc3ccccc3)C(=O)N2[C@H]1C(=O)[O-].[K+] [penicillin G potassium salt],less than 0.01%,
CC1(C)S[C@@H]2[C@H](NC(=O)Cc3ccccc3)C(=O)N2[C@H]1C(=O)[O-].[Na+] [penicillin G sodium salt],less than 0.01%,
